Usually IC50 stands for the midpoint of a concentration-inhibition curve. A lower IC50 goes with greater potency in that assay. What is called inhibition is the percentage by which the read-out fell short of the control. Low readings indicate a weak effect, high ones a strong effect. By Papp A→B is commonly meant the apparent permeability from the apical to the basolateral side of a cell layer. In general, Cmax refers to the maximum level reached in the sampled fluid or tissue. The AUC(0-inf) is the area under the concentration-time curve extrapolated to infinity. Lower therefore signals less exposure. As a reminder, the half-life is how long it takes for the measured level to halve. What is called clearance is the rate of elimination divided by the concentration. One may read the Tmax as the time from dosing to the highest level. Usually pKa stands for the negative logarithm of the acid dissociation constant. High values mean a group that holds its proton tightly, low ones a group that gives up its proton readily.

This is an account of results in ChEMBL document CHEMBL3804797, “Discovery of Aryl Sulfonamides as Isoform-Selective Inhibitors of NaV1.7 with Efficacy in Rodent Pain Models” (ACS Med Chem Lett, 2016).

Each structure is given as a SMILES string. Converted amounts (≈) assume the structure as drawn.

Series [1] concerns the target Sodium channel protein type 5 subunit alpha (Homo sapiens, UniProt Q14524). Nature of the series: Inhibition of full length human Nav1.5 channel expressed in HEK cells co-expressing human sodium channel subunit beta1 at holding potential -60 mV by automated voltage clamp analysis. Type of series: cell-based, HEK293.
For the next series, the species on record is Homo sapiens. Nature of the series: Selectivity ratio of IC50 for human Nav1.5 to IC50 for human Nav1.7.
Series [2] addresses Sodium channel protein type 1 subunit alpha (Homo sapiens, UniProt P35498). The series can be described thus: Inhibition of full length human Nav1.1 channel expressed in HEK cells co-expressing human sodium channel subunit beta1 at holding potential -40 mV by automated voltage clamp analysis. Type of series: cell-based, HEK293.
Series [3] addresses Sodium channel protein type 2 subunit alpha (Homo sapiens, UniProt Q99250). The series can be described thus: Inhibition of full length human Nav1.2 channel expressed in HEK cells co-expressing human sodium channel subunit beta1 at holding potential -35 mV by automated voltage clamp analysis. Type of series: cell-based, HEK293.
In series [4] the target is Sodium channel protein type 4 subunit alpha (Homo sapiens, UniProt P35499). The series can be described thus: Inhibition of full length human Nav1.4 channel expressed in HEK cells co-expressing human sodium channel subunit beta1 by automated voltage clamp analysis. Type of series: cell-based, HEK293.
In series [5] the target is Sodium channel protein type 8 subunit alpha (Homo sapiens, UniProt Q9UQD0). The series can be described thus: Inhibition of full length human Nav1.6 channel expressed in HEK cells co-expressing human sodium channel subunit beta1 at holding potential -35 mV by automated voltage clamp analysis. The format is cell-based, HEK293.
In series [6] the target is Sodium channel protein type 10 subunit alpha (Homo sapiens, UniProt Q9Y5Y9). The series can be described thus: Inhibition of full length human Nav1.8 channel expressed in HEK cells co-expressing human sodium channel subunit beta3 at holding potential -20 mV by manual voltage clamp analysis. Type of series: cell-based, HEK293.
For a further series, the target named is hERG (KCNH2) (Homo sapiens, UniProt Q12809). Nature of the series: Displacement of [3H] astemizole from human ERG channel at 5 uM. The following applies: probe [3H] astemizole. On the technique in general: Loss of bound radioactivity is the signal in a displacement assay; it reports binding, not function.
Sequence of hERG (KCNH2) (Q12809 whole entry): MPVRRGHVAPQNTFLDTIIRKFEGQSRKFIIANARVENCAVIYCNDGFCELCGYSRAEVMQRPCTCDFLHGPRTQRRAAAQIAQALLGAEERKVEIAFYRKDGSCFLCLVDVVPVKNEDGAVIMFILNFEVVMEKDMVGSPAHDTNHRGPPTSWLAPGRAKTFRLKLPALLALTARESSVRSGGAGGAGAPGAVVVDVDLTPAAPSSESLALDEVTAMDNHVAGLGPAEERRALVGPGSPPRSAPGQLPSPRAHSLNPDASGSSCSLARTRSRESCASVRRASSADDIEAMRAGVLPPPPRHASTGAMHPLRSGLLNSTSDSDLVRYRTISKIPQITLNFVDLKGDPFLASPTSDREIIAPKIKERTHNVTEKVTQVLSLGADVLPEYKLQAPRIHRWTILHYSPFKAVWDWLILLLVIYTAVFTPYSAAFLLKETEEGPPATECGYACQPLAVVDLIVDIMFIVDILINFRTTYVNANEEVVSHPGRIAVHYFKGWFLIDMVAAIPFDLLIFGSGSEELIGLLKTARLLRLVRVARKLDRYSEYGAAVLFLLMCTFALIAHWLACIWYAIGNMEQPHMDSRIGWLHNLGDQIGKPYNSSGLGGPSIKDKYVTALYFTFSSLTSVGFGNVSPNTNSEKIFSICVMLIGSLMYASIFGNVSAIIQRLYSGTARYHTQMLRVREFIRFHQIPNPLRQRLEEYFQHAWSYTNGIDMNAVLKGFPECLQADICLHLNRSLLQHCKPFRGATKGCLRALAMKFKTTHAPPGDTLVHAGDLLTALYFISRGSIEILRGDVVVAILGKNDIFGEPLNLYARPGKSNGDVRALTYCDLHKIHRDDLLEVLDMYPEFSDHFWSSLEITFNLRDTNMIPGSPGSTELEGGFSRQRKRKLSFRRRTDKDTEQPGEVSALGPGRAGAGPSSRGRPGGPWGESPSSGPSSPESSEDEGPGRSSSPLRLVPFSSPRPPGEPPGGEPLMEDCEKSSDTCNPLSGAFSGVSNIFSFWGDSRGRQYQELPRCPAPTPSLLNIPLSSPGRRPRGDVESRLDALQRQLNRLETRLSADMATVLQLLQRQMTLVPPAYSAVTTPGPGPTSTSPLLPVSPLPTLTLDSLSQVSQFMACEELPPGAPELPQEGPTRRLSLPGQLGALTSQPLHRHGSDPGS
Series [7] addresses Sodium channel protein type 3 subunit alpha (Homo sapiens, UniProt Q9NY46). Nature of the series: Inhibition of full length human Nav1.3 channel expressed in HEK cells co-expressing human sodium channel subunit beta1 at holding potential -50 mV by automated voltage clamp analysis. Type of series: cell-based, HEK293.
For another series, the target named is Cytochrome P450 2C9 (Homo sapiens, UniProt P11712). Nature of the series: Inhibition of CYP2C9 in human liver microsomes using warfarin as substrate after 30 mins by LC/MS/MS analysis. The format is ADME. On the technique in general: Liver microsomes are a subcellular fraction often used to study metabolism.
Sequence of Cytochrome P450 2C9 (P11712 whole entry): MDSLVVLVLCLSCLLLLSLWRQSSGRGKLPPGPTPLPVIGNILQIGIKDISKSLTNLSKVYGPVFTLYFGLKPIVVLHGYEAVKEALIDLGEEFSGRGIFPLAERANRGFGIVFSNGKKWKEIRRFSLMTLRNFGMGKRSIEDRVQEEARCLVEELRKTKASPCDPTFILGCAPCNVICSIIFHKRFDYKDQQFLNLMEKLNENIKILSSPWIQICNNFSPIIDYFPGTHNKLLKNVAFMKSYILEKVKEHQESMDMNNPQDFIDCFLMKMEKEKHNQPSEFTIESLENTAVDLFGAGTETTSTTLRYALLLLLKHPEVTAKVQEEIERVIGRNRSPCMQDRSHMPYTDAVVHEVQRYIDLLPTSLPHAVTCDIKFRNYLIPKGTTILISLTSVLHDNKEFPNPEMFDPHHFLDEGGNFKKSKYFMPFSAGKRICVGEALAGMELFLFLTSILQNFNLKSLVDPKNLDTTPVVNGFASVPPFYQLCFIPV
The next series has as its target Cytochrome P450 3A4 (Homo sapiens, UniProt P08684). The series can be described thus: Inhibition of CYP3A4 in human liver microsomes using testosterone/midazolam as substrate after 30 mins by LC/MS/MS analysis. Type of series: ADME.
A further series addresses T1, Cytochrome P450 1A2 (Homo sapiens, UniProt P05177).
T1 sequence (P05177 whole entry): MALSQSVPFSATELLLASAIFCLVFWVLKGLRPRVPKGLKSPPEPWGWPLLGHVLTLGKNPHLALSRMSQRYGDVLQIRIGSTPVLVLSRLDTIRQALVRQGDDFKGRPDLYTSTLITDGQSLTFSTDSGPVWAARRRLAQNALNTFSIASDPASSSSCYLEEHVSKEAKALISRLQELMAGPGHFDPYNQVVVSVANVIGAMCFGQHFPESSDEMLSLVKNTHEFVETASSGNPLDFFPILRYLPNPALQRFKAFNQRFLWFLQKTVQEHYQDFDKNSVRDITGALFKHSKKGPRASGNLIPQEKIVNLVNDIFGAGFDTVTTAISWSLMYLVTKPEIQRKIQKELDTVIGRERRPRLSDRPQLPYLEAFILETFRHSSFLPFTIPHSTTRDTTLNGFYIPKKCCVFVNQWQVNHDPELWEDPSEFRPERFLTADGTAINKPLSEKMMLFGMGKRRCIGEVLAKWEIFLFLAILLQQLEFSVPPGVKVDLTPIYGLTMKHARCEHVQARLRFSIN
The series can be described thus: Inhibition of CYP1A2 in human liver microsomes using phenacetin as substrate after 30 mins by LC/MS/MS analysis. Type of series: ADME.

The next series deals with Cytochrome P450 2D6 (Homo sapiens, UniProt P10635). The series can be described thus: Inhibition of CYP2D6 in human liver microsomes using dextromethorphan as substrate after 30 mins by LC/MS/MS analysis. Type of series: ADME.
Sequence of Cytochrome P450 2D6 (P10635 whole entry): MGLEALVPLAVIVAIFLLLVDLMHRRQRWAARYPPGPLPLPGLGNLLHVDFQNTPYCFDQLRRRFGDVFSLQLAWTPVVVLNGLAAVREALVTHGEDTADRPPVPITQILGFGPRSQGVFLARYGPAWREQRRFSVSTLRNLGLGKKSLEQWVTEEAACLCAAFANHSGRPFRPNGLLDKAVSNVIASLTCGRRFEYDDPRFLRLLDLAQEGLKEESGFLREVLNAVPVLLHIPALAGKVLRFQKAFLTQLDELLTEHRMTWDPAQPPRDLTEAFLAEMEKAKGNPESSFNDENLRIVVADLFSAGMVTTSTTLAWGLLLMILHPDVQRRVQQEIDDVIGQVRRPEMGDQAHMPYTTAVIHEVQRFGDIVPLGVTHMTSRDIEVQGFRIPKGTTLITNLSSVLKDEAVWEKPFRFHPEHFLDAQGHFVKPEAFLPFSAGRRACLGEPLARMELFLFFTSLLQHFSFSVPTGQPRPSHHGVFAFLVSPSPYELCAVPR
The next series has as its target Cytochrome P450 2C19 (Homo sapiens, UniProt P33261). The series can be described thus: Inhibition of CYP2C19 in human liver microsomes using mephenytoin as substrate after 30 mins by LC/MS/MS analysis. Type of series: ADME.
Series [8] deals with T2, Sodium channel protein type 9 subunit alpha (Homo sapiens, UniProt Q15858). The series can be described thus: Inhibition of full length human Nav1.7 channel expressed in HEK cells co-expressing human sodium channel subunit beta1 at holding potential -60 mV by automated voltage clamp analysis. Type of series: cell-based, HEK293.
In series [9] the target is Sodium channel protein type 9 subunit alpha (Mus musculus, UniProt Q62205). The series can be described thus: Inhibition of Nav1.7 channel in mouse CAD cells by whole-cell patch clamp assay. Type of series: cell-based. (In general: Patch clamp records ionic current or voltage across a cell membrane.)
In series [10] the target is Sodium channel protein type 9 subunit alpha (Rattus norvegicus, UniProt O08562). The series can be described thus: Inhibition of rat Nav1.7 channel by automated voltage clamp analysis.
A short description of series [11]: Kinetic solubility of compound at pH 7.2. The format is physicochemical. The note with it: buffer, read-out: Kinetic_solubility.
A short description of series [12]: Apparent permeability from apical to basolateral side in MDCK1 cells at 10 uM incubated for 2 hrs. The format is ADME, cell-based, Canis lupus familiaris. The following applies: dog, MDCK.
The nature of series [13]: Efflux ratio of apparent permeability from apical to basolateral side to basolateral to apical side in MDCK1 cells expressing human MDR1 at 10 uM. Type of series: ADME, cell-based, Canis lupus familiaris. The following applies: dog, mdck1, 10 µM.
Series [14] in a line: Plasma protein binding in rat at 10 uM incubated for 20 hrs by HPLC-MS/MS analysis. The format is ADME, cell-free. The following applies: read-out: PPB (converted).
The nature of series [15]: Cmax in Sprague-Dawley rat at 1 mg/kg, iv. The note with it: in vivo. Type of series: ADME, organism-based. Set-up: dose 1 mg/kg, route intravenous.
The nature of series [16]: AUC (0 to infinity) in Sprague-Dawley rat at 1 mg/kg, iv. Type of series: ADME, organism-based. Further details: dose 1 mg/kg, time infinity, route intravenous. The following applies: in vivo.
Series [17] can be described thus: Half life in Sprague-Dawley rat at 1 mg/kg, iv. Type of series: ADME, organism-based. The following applies: in vivo.
A short description of series [18]: Plasma clearance in Sprague-Dawley rat at 1 mg/kg, iv. The format is ADME, organism-based.
A short description of series [19]: Volume of distribution at steady state in Sprague-Dawley rat at 1 mg/kg, iv. Type of series: ADME, organism-based. The note with it: in vivo, read-out: Vdss.
Series [20] in a line: Cmax in Sprague-Dawley rat at 20 mg/kg, ip. Type of series: ADME, organism-based. Set-up: dose 20 mg/kg, route intraperitoneal. The note with it: in vivo.
A short description of series [21]: Tmax in Sprague-Dawley rat at 20 mg/kg, ip. The format is ADME, organism-based. The following applies: in vivo.
Series [22] is described as follows: AUC (0 to infinity) in Sprague-Dawley rat at 20 mg/kg, ip. The format is ADME, organism-based. The following applies: in vivo. Further details: dose 20 mg/kg, route intraperitoneal, time infinity.
Series [23] can be described thus: Half life in Sprague-Dawley rat at 20 mg/kg, ip. The format is ADME, organism-based. The following applies: in vivo.
Series [24] in a line: Ratio of drug uptake in brain to plasma in Sprague-Dawley rat at 20 mg/kg, ip by UHPLC analysis. Type of series: ADME, organism-based. The following applies: read-out: BPR.
For series [25], the target named is T2, Sodium channel protein type 9 subunit alpha. Nature of the series: Inhibition of full length human Nav1.7 channel expressed in HEK cells co-expressing human sodium channel subunit beta3 at -150 mV by manual voltage clamp analysis. The format is cell-based, HEK293.
A short description of series [26]: Dissociation constant, pKa of the compound at 100 uM by UV-spectrophotometric titration method. Type of series: physicochemical.

Sequence of Sodium channel protein type 5 subunit alpha (Q14524 whole entry): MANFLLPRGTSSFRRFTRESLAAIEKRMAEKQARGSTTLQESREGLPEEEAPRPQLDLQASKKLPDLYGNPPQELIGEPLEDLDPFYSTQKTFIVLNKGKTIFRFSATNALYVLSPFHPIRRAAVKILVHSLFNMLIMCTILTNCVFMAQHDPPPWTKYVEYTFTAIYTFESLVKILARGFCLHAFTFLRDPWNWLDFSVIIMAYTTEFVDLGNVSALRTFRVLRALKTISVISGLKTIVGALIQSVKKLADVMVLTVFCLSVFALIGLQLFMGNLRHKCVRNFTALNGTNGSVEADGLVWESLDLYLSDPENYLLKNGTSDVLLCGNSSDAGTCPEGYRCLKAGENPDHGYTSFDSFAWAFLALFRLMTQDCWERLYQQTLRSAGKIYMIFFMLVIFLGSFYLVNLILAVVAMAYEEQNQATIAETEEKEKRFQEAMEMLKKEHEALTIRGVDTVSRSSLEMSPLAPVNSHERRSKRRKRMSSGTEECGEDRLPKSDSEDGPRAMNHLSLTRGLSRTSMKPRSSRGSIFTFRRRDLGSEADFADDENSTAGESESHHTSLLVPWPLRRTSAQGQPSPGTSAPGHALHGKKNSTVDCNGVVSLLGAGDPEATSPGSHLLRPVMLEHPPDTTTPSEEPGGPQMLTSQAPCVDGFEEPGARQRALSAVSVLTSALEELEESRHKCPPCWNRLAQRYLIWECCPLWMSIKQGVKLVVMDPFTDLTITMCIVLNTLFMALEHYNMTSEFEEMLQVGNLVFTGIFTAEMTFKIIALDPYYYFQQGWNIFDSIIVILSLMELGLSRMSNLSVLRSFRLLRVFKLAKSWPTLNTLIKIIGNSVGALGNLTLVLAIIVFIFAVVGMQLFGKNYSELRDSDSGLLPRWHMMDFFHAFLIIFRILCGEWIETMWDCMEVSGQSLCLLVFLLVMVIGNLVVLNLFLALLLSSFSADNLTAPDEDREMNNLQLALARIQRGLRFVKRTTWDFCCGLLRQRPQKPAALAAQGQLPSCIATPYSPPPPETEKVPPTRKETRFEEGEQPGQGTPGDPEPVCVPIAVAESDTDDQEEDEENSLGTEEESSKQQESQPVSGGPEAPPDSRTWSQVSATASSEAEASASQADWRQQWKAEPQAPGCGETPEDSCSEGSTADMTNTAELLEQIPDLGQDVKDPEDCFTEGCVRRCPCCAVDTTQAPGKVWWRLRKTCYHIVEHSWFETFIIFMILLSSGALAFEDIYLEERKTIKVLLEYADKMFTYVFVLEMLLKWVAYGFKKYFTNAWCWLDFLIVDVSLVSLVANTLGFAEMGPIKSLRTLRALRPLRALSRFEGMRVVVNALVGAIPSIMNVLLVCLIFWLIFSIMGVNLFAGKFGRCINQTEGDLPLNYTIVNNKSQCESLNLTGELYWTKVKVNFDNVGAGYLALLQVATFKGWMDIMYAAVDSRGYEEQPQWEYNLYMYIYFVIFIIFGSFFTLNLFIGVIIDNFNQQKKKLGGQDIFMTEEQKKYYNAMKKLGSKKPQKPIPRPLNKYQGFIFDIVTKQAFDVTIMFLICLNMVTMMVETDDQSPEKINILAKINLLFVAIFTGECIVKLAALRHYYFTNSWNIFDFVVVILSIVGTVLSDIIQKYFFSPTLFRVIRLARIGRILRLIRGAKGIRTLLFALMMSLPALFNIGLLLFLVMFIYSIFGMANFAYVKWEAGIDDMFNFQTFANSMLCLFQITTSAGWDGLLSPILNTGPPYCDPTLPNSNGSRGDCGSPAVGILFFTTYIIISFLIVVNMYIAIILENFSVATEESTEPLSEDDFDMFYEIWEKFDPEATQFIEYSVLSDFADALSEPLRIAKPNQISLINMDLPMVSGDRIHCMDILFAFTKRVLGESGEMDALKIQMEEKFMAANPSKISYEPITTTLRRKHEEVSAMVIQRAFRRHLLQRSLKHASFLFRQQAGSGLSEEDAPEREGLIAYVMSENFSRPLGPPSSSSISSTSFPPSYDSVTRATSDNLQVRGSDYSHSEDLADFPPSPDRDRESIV
Sequence of Cytochrome P450 3A4 (P08684 whole entry): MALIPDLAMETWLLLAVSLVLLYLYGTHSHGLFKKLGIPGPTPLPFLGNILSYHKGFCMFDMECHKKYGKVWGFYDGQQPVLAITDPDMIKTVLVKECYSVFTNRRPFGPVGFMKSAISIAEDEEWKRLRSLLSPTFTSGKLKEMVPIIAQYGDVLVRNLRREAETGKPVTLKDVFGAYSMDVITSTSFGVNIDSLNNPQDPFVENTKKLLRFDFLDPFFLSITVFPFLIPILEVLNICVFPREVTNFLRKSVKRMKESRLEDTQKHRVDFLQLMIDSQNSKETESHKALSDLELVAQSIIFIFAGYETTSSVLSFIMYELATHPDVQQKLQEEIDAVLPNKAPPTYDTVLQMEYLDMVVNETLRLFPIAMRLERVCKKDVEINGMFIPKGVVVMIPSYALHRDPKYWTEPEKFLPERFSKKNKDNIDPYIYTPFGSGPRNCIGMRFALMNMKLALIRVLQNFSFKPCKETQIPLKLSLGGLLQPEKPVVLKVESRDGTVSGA

Consider `Nc1nc2cc(-c3cc(Cl)ccc3Oc3cc(F)c(S(=O)(=O)Nc4ncns4)cc3F)ccc2[nH]1`, for which the IC50 in series [1] is greater than 10000 nM; in series [2] it was 6380 nM; in [3], 0.2 nM; in series [4] it was greater than 10000 nM; in series [5], 0.8 nM; in series [6], 3850 nM. In series [7], this compound came in with an IC50 of 9330 nM. For the same compound, the Ratio IC50 in the series listed under Homo sapiens was greater than 12000. The same compound showed an inhibition at 5 µM at hERG (KCNH2) of less than 11%.

On to `Nc1noc2ccc(-c3cc(Cl)ccc3Oc3cc(F)c(S(=O)(=O)Nc4ncccn4)cc3F)cc12`, for which the inhibition at 5 µM at hERG (KCNH2) was less than 11%. In addition, the half-maximal inhibitory concentration (IC50) against Cytochrome P450 2C9 is 570 nM; against Cytochrome P450 3A4 it was greater than 10000 nM; against Cytochrome P450 1A2, greater than 10000 nM; at Cytochrome P450 2D6, greater than 10000 nM; against Cytochrome P450 2C19 it was greater than 10000 nM.

For `Nc1noc2ccc(-c3cc(Cl)ccc3Oc3cc(F)c(S(=O)(=O)Nc4ncns4)cc3F)cc12`, the IC50 came to 0.4 nM in series [8]; 1380 nM in [1]; 3080 nM in [2]; 4.2 nM in [3]; 11 nM in [5]; 0.2 nM in series [9]. Moreover, the IC50 in series [10] is 26 nM; on Cytochrome P450 2C9, 170 nM; at Cytochrome P450 3A4 it was 77 nM; against Cytochrome P450 1A2, greater than 9000 nM; on Cytochrome P450 2D6, greater than 9000 nM; in series [25] it was 0.4 nM. The compound also displayed an inhibition at 5 µM at hERG (KCNH2) of less than 11%. The solubility kinetic in series [11] was 121 µM (≈ 64.8 µg/mL). Besides, the Papp A→B at 2 h, 10 µM in series [12] came to 2.1 ×10⁻⁶ cm/s. Moreover, the Ratio in series [13] amounted to 47. Also, the fraction unbound at 20 h, 10 µM in series [14] was 0.011. Besides, the Cmax in [15] was determined as 2.9 µM; in series [20] it was 5.3 µM. Also, the values for the AUC(0-inf) in [16] and in series [22] were 0.18 µM·h and 13.5 µM·h, respectively. Besides, the half-life in [17] was 7.8 min; in series [23], 132 min. This compound also yielded a clearance in [18] of 177 mL/min/kg. Further, in series [19], the Vd was 1.4 L/kg. Moreover, the Tmax in [21] was 3.6 min. For the same compound, the Kp in [24] is 0.019. Besides, the pKa at 100 µM in series [26] was 3.2.
